Test results published in ChEMBL document CHEMBL3885861, “Open TG-GATES”.

Species on record: Rattus norvegicus
Test: Open TG-GATES - Regimen: Single
Assay type: toxicity, organism-based, Sprague-Dawley
Parameters: regimen Single, gender Male, age 6 weeks
Details: in vivo, po, 1000 mg/kg, route gavage, dose level High; for APTT / Bas / Eos / Fbg / Hb / Ht / Lym / MCHC / MCV / Mono / Neu / PT / Plat / RBC / Ret / WBC: tissue Blood; for KIDNEY_L / KIDNEY_R / KIDNEY_TOTAL: tissue Kidney; for LIVER: tissue Liver

CN(C)C(=N)N=C(N)N [METFORMIN]
APTT (3 h): 16.6 s
Bas (3 h): 0.2%
Eos (3 h): 1%
Fbg (3 h): 250.4 mg/dL
Hb (3 h): 13.4 g/dL
Ht (3 h): 40.4%
Lym (3 h): 78.6%
MCHC (3 h): 33.1%
MCV (3 h): 64 fL
Mono (3 h): 4.2%
Neu (3 h): 15.2%
PT (3 h): 12.2 s
Plat (3 h): 118.4 x10_4/uL
RBC (3 h): 631.8 x10_4/ul
Ret (3 h): 9.7%
WBC (3 h): 85.9 x10_2/uL
KIDNEY_L (3 h): 0.9 g
KIDNEY_R (3 h): 0.9 g
KIDNEY_TOTAL (3 h): 1.8 g
LIVER (3 h): 8.2 g
ALP (3 h, tissue Plasma): 1303.6 IU/L
ALT (3 h, tissue Plasma): 60.8 IU/L
AST (3 h, tissue Plasma): 79.2 IU/L
BUN (3 h, tissue Plasma): 8.8 mg/dL
CRE (3 h, tissue Plasma): 0.2 mg/dL
Ca (3 h, tissue Plasma): 11.1 mg/dL
Cl (3 h, tissue Plasma): 106.6 meq/L
DBIL (3 h, tissue Plasma): 0.008 mg/dL
GLC (3 h, tissue Plasma): 149 mg/dL
IP (3 h, tissue Plasma): 9.3 mg/dL
K (3 h, tissue Plasma): 3.8 meq/L
LDH (3 h, tissue Plasma): 63 IU/L
Na (3 h, tissue Plasma): 141.4 meq/L
PL (3 h, tissue Plasma): 130.2 mg/dL
RALB (3 h, tissue Plasma): 2.6 g/dL
TBIL (3 h, tissue Plasma): 0.038 mg/dL
TG (3 h, tissue Plasma): 47 mg/dL
TP (3 h, tissue Plasma): 5.4 g/dL
gamma-GTP (3 h, tissue Plasma): 1 IU/L
TERMINAL_BW (6 h): 201.2 g
APTT (6 h): 17.8 s
Bas (6 h): 0%
Eos (6 h): 1%
Fbg (6 h): 259.6 mg/dL
Hb (6 h): 13 g/dL
Ht (6 h): 39%
Lym (6 h): 72.4%
MCHC (6 h): 33.2%
MCV (6 h): 64.7 fL
Mono (6 h): 3.4%
Neu (6 h): 22.4%
PT (6 h): 12.3 s
Plat (6 h): 118.4 x10_4/uL
RBC (6 h): 602.6 x10_4/ul
Ret (6 h): 9.9%
WBC (6 h): 87.3 x10_2/uL
KIDNEY_L (6 h): 0.8 g
KIDNEY_R (6 h): 0.8 g
KIDNEY_TOTAL (6 h): 1.7 g
LIVER (6 h): 7.3 g
ALP (6 h, tissue Plasma): 996 IU/L
ALT (6 h, tissue Plasma): 104.2 IU/L
AST (6 h, tissue Plasma): 88.4 IU/L
BUN (6 h, tissue Plasma): 9.2 mg/dL
CRE (6 h, tissue Plasma): 0.1 mg/dL
Ca (6 h, tissue Plasma): 11.1 mg/dL
Cl (6 h, tissue Plasma): 106.2 meq/L
DBIL (6 h, tissue Plasma): 0.004 mg/dL
GLC (6 h, tissue Plasma): 137 mg/dL
IP (6 h, tissue Plasma): 10 mg/dL
K (6 h, tissue Plasma): 3.7 meq/L
LDH (6 h, tissue Plasma): 52 IU/L
Na (6 h, tissue Plasma): 140.8 meq/L
PL (6 h, tissue Plasma): 143.4 mg/dL
RALB (6 h, tissue Plasma): 2.5 g/dL
TBIL (6 h, tissue Plasma): 0.05 mg/dL
TC (6 h, tissue Plasma): 86.2 mg/dL
TG (6 h, tissue Plasma): 20.6 mg/dL
TP (6 h, tissue Plasma): 5.2 g/dL
gamma-GTP (6 h, tissue Plasma): 1 IU/L
TERMINAL_BW (9 h): 199.9 g
APTT (9 h): 16.4 s
Bas (9 h): 0.2%
Eos (9 h): 1%
Fbg (9 h): 251.6 mg/dL
Hb (9 h): 13 g/dL
Ht (9 h): 38.9%
Lym (9 h): 77%
MCHC (9 h): 33.2%
MCV (9 h): 65.9 fL
Mono (9 h): 3%
Neu (9 h): 18.6%
PT (9 h): 12.5 s
Plat (9 h): 112.8 x10_4/uL
RBC (9 h): 591.6 x10_4/ul
Ret (9 h): 10.3%
WBC (9 h): 89.9 x10_2/uL
KIDNEY_L (9 h): 0.8 g
KIDNEY_R (9 h): 0.8 g
KIDNEY_TOTAL (9 h): 1.7 g
LIVER (9 h): 6.8 g
ALP (9 h, tissue Plasma): 1282.4 IU/L
ALT (9 h, tissue Plasma): 84.4 IU/L
AST (9 h, tissue Plasma): 83.2 IU/L
BUN (9 h, tissue Plasma): 10 mg/dL
CRE (9 h, tissue Plasma): 0.1 mg/dL
Ca (9 h, tissue Plasma): 10.9 mg/dL
Cl (9 h, tissue Plasma): 107.4 meq/L
DBIL (9 h, tissue Plasma): 0.008 mg/dL
GLC (9 h, tissue Plasma): 113.8 mg/dL
IP (9 h, tissue Plasma): 10.6 mg/dL
K (9 h, tissue Plasma): 3.7 meq/L
LDH (9 h, tissue Plasma): 46 IU/L
Na (9 h, tissue Plasma): 142.2 meq/L
PL (9 h, tissue Plasma): 138.6 mg/dL
RALB (9 h, tissue Plasma): 2.5 g/dL
TBIL (9 h, tissue Plasma): 0.042 mg/dL
TG (9 h, tissue Plasma): 20.6 mg/dL
TP (9 h, tissue Plasma): 5.1 g/dL
gamma-GTP (9 h, tissue Plasma): 1.2 IU/L
TERMINAL_BW (24 h): 202.6 g
APTT (24 h): 15.2 s
Bas (24 h): 0%
Eos (24 h): 1%
Fbg (24 h): 244.6 mg/dL
Hb (24 h): 12.8 g/dL
Ht (24 h): 38.3%
Lym (24 h): 76.2%
MCHC (24 h): 33.5%
MCV (24 h): 64.5 fL
Mono (24 h): 3.6%
Neu (24 h): 18.6%
PT (24 h): 12.6 s
Plat (24 h): 114.2 x10_4/uL
RBC (24 h): 593.4 x10_4/ul
Ret (24 h): 9.4%
WBC (24 h): 98.2 x10_2/uL
KIDNEY_L (24 h): 0.9 g
KIDNEY_R (24 h): 0.9 g
KIDNEY_TOTAL (24 h): 1.8 g
LIVER (24 h): 8.8 g
ALP (24 h, tissue Plasma): 1502.2 IU/L
ALT (24 h, tissue Plasma): 42.6 IU/L
AST (24 h, tissue Plasma): 74.6 IU/L
BUN (24 h, tissue Plasma): 15.4 mg/dL
CRE (24 h, tissue Plasma): 0.2 mg/dL
Ca (24 h, tissue Plasma): 11.3 mg/dL
Cl (24 h, tissue Plasma): 104.2 meq/L
DBIL (24 h, tissue Plasma): 0.012 mg/dL
GLC (24 h, tissue Plasma): 182.4 mg/dL
IP (24 h, tissue Plasma): 8.8 mg/dL
K (24 h, tissue Plasma): 4.3 meq/L
LDH (24 h, tissue Plasma): 57 IU/L
Na (24 h, tissue Plasma): 140.8 meq/L
PL (24 h, tissue Plasma): 135.4 mg/dL
RALB (24 h, tissue Plasma): 2.5 g/dL
TBIL (24 h, tissue Plasma): 0.038 mg/dL
TG (24 h, tissue Plasma): 53.2 mg/dL
TP (24 h, tissue Plasma): 5.4 g/dL
gamma-GTP (24 h, tissue Plasma): 1 IU/L
